Results as given in publication PMC6383519 (Cancer immunology, immunotherapy : CII, 2013).
Entries after “also recorded” stand apart in the source; their conditions may differ. Read-outs that look alike come from different tables or passages of the source.

Assays:
[1] = test system: HLA-A2 molecule on T2 cells; assay: T2-cell binding; parameters: species or system human; settings: for Actual binding: T2-A2 cells, peptide 12.5 μg/ml, overnight incubation, flow cytometry, mean fluorescence intensity; for T2-A2 binding (rank): ranking among 5 potential MUC1-C agonist epitopes
PBMCs of cancer patients = assay: Establishment of peptide-specific T-cell lines; type: cell-based, human; settings: PBMCs of vaccinated cancer patients, autologous DCs pulsed with 20 μg/ml peptide
[2] = test system: MUC1 peptide-specific CD8+ T cells; assay: Tetramer staining; type: cell-based, human; settings: Supplemental Fig. 3; for binding of T-cell line to corresponding tetramer: HLA-A3 tetramers; for binding of T-cell line to the control tetramer: negative control tetramer
[3] = test system: C1RA3 cells pulsed with the corresponding peptide; assay: Lysis of cells pulsed with the corresponding peptide; type: cell-based, human; settings: T-cell lines from PBMCs of HLA-A3 patients vaccinated with PANVAC
[4] = test system: MUC1-specific T-cell lines; type: cell-based, human
[5] = test system: MUC1-specific T-cell lines; assay: IFN-γ production by peptide-specific T-cell lines; type: cell-based, human; settings: ranking among 5 potential MUC1-C agonist epitopes
[6] = test system: tumor cells endogenously expressing the native antigen; assay: Ranking of killing by peptide-specific CTL; type: cell-based, human; settings: ranking among 5 potential MUC1-C agonist epitopes
[7] = HLA-A24, T-cell line T-C7A stimulated 24h with B-cells pulsed with the peptide
[8] = HLA-A24, T-cell line T-C7 stimulated 24h with B-cells pulsed with the peptide

With ALAIVYLIAL [Peptide C1] as the sequence, how does the Actual binding [1] read?
The Actual binding was 249 MFI.

Which “generation of T-cell lines with the peptide” value (from here on “generation of T-cell lines”) (PBMCs of cancer patients) does the source give for ALAIVYLIAL [Peptide C4] here?
Its value is “grew poorly”.

For ALFIVYLIAK [Peptide C4A], which “generation of T-cell lines” value (PBMCs of cancer patients) is on record?
The value was “could be derived”.

What about the “binding of T-cell line to corresponding tetramer” value [2] of the same sequence?
Its value is 20.2%.

And the “binding of T-cell line to the control tetramer” value [2]?
The value was less than 0.04%.

What about the “lysis of C1RA3 cells pulsed with the corresponding peptide” value [3] of the same sequence?
The value was “seen”.

What does the source list for APDTRPAPG [Peptide V2]?
Actual binding [1]: 210 MFI; generation of T-cell lines with the peptide (PBMCs of cancer patients): could not be generated

What does the source list for KYHPMSEYAL [Peptide C6A]?
generation of T-cell lines with the peptide (PBMCs of cancer patients): could be generated; IFN-γ ([4]; stimulation of the T-cell line generated with the C6A agonist peptide): 2,651 pg/ml/10^5 cells

Which results are given for KYTNPAVAL [Peptide C7A]?
generation of T-cell lines with the peptide (PBMCs of cancer patients): could be generated; GM-CSF [4, 7]: 910 pg/ml/2.5 × 10^5 T cells; IFN-γ [4, 7]: 2,000 pg/ml/2.5 × 10^5 T cells; IL-2 [4, 7]: <2.4 pg/ml/2.5 × 10^5 T cells; IL-6 [4, 7]: 40 pg/ml/2.5 × 10^5 T cells; IL-8 [4, 7]: 360 pg/ml/2.5 × 10^5 T cells; IL-10 [4, 7]: 375 pg/ml/2.5 × 10^5 T cells; TNFα [4, 7]: 70 pg/ml/2.5 × 10^5 T cells; GM-CSF [4, 8]: 300 pg/ml/2.5 × 10^5 T cells; IFN-γ [4, 8]: 1,279 pg/ml/2.5 × 10^5 T cells; IL-2 [4, 8]: <2.4 pg/ml/2.5 × 10^5 T cells; IL-6 [4, 8]: 7.7 pg/ml/2.5 × 10^5 T cells; IL-8 [4, 8]: 7.3 pg/ml/2.5 × 10^5 T cells; IL-10 [4, 8]: 45 pg/ml/2.5 × 10^5 T cells; TNFα [4, 8]: 30 pg/ml/2.5 × 10^5 T cells

Which “generation of T-cell lines” value (PBMCs of cancer patients) does the source give for SLFRSPYEK [Peptide C5A] here?
The value was “could be derived”.

What about the “binding of T-cell line to corresponding tetramer” value [2] of the same sequence?
The value was 16.2%.

What about the “binding of T-cell line to the control tetramer” value [2] of the same sequence?
Its value is less than 0.04%.

And the “lysis of C1RA3 cells pulsed with the corresponding peptide” value [3]?
The value was “seen”.

With SLSYTNPAV [Peptide C3] as the sequence, how does the Actual binding [1] read?
The Actual binding was 326 MFI.

For STAPPAHGV [Peptide V1], which Actual binding [1] is on record?
The Actual binding was 166 MFI.

What about the “generation of T-cell lines” value (PBMCs of cancer patients) of the same sequence?
Its value is “could not be generated”.

With STDRSPYEK [Peptide C5] as the sequence, how does the “generation of T-cell lines” value (PBMCs of cancer patients) read?
The value was “grew poorly”.

How did the “generation of T-cell lines” value (PBMCs of cancer patients) turn out when SYTNPAVAA [Peptide C7] was run?
Its value is “grew poorly; also recorded: could be generated”.

What about the GM-CSF [4, 7] of the same sequence?
Its GM-CSF is 215 pg/ml/2.5 × 10^5 T cells.

And the IFN-γ [4, 7]?
The IFN-γ was 680 pg/ml/2.5 × 10^5 T cells.

And the IL-2 [4, 7]?
The IL-2 was less than 2.4 pg/ml/2.5 × 10^5 T cells.

And the IL-6 [4, 7]?
Its IL-6 is less than 2.4 pg/ml/2.5 × 10^5 T cells.

What about the IL-8 [4, 7] of the same sequence?
The IL-8 was 112 pg/ml/2.5 × 10^5 T cells.

And the IL-10 [4, 7]?
Its IL-10 is 92 pg/ml/2.5 × 10^5 T cells.

And the TNFα [4, 7]?
Its TNFα is 30 pg/ml/2.5 × 10^5 T cells.

And the GM-CSF [4, 8]?
Its GM-CSF is 237 pg/ml/2.5 × 10^5 T cells.

And the IFN-γ [4, 8]?
Its IFN-γ is 750 pg/ml/2.5 × 10^5 T cells.

What about the IL-2 [4, 8] of the same sequence?
Its IL-2 is less than 2.4 pg/ml/2.5 × 10^5 T cells.

What about the IL-6 [4, 8] of the same sequence?
The IL-6 was 6.4 pg/ml/2.5 × 10^5 T cells.

And the IL-8 [4, 8]?
The IL-8 was 6.8 pg/ml/2.5 × 10^5 T cells.

What about the IL-10 [4, 8] of the same sequence?
Its IL-10 is 25 pg/ml/2.5 × 10^5 T cells.

And the TNFα [4, 8]?
The TNFα was 21 pg/ml/2.5 × 10^5 T cells.

What does the source list for YLAIVYLIAL [Peptide C1A]?
Actual binding [1]: 245 MFI; T2-A2 binding (rank) [1]: 5; Level of IFN-γ produced by peptide-specific CTL (rank) [5]: 3; Level of killing by peptide-specific CTL (rank) [6]: 2

YLAPPAHGV [Peptide V1A] was tested. Which Actual binding [1] did it give?
Its Actual binding is 486 MFI.

And the “generation of T-cell lines” value (PBMCs of cancer patients)?
The value was “successfully generated”.

With YLDTRPAPV [Peptide V2A] as the sequence, how does the Actual binding [1] read?
The Actual binding was 647 MFI.

What about the “generation of T-cell lines” value (PBMCs of cancer patients) of the same sequence?
The value was “successfully generated”.

Which Actual binding [1] does the source give for YLIALAVCQC [Peptide C2] here?
The Actual binding was 211 MFI.

With YLIALAVCQV [Peptide C2A] as the sequence, how does the Actual binding [1] read?
The Actual binding was 299 MFI.

And the “T2-A2 binding (rank)” value [1]?
The value was 3.

And the “Level of IFN-γ produced by peptide-specific CTL (rank)” value (shortened to “Level of IFN-γ produced”) [5]?
Its value is 1.

And the “Level of killing by peptide-specific CTL (rank)” value (shortened to “Level of killing”) [6]?
Its value is 1.

How did the “T2-A2 binding (rank)” value [1] turn out when YLLVLVCVLV [Peptide C9A] was run?
The value was 4.

And the “Level of IFN-γ produced” value [5]?
The value was “Negative”.

And the “Level of killing” value [6]?
The value was “Negative”.

Which “T2-A2 binding (rank)” value [1] does the source give for YLSDVSVSDV [Peptide C8A] here?
Its value is 2.

What about the “Level of IFN-γ produced” value [5] of the same sequence?
Its value is 4.

And the “Level of killing” value [6]?
The value was “Negative”.

YLSYTNPAV [Peptide C3A] was tested. Which Actual binding [1] did it give?
The Actual binding was 342 MFI.

What about the “T2-A2 binding (rank)” value [1] of the same sequence?
Its value is 1.

What about the “Level of IFN-γ produced” value [5] of the same sequence?
Its value is 2.

And the “Level of killing” value [6]?
Its value is 3.
